In US12281225B2, “Process for preparing stable polymers containing vinylimidazole” (BASF SE, priority 2018, dated 2025):

Legend:
Format in all cases: physicochemical
[1] = Analysis of active substance: preservative concentration before and after storage in VI-containing polymer solution; settings: for active-substance concentration, 0 d, RT: before storage; for active-substance concentration, 14 d, 40° C.: storage 14 d at 40° C.; for active-substance concentration, 28 d, 40° C.: storage 28 d at 40° C.; for active-substance concentration, 60 d 40° C.: storage 60 d at 40° C.
Method: Stability of Preservatives in VI-Containing Polymers:
The following stabilizers for VI-containing polymers (here: aqueous solution of a copolymer of vinylpyrrolidone and vinylimidazole) were tested.
MIT, BIT, CMIT, OIT, DCOIT and iodopropynyl butyl carbamate were determined by RP chromatography with UV detection after dilution of the sample to be tested. An RP18 column was used for this purpose, with an eluent composed of an acid-methanol mixture under isocratic conditions.

[2] = Iodine color number according to DIN 6162:2014-09
[3] = Physical stability; visual assessment (color, turbidity, phase separation); set-up: key: ++: no discernible change with respect to color, turbidity or phase separation; +: marginal change in color number, somewhat increased Tyndall effect but no turbidity; 0: easily discernible increase in color number and moderate turbidity−no phase separation; −: turbidity and change in color number readily discernible by visual assessment; −−: strong color change with strong turbidity and incipient phase separation
Excerpt: Physical stability; visual assessment according to:
++=no discernible change with respect to color, turbidity or phase separation; +=marginal change in color number, somewhat increased Tyndall effect but no turbidity; 0=easily discernible increase in color number and moderate turbidity−no phase separation; − turbidity and change in color number readily discernible by visual assessment; −− strong color change with strong turbidity and incipient phase separation.
Before storage, all batches could be rated ++ (no turbidity or phase separation; no influence of the biocide on the color number of the product).

[4] = Polymer P5 (HP56) with stabilizer

CCCCCCCCCC[N+](C)(C)CCCCCCCCCC.[Cl-] [DDAC, didecyldimethylammonium chloride]
active-substance concentration, 0 d, RT ([1]; in Polymer P1): 950 ppm | active-substance concentration, 14 d, 40° C. ([1]; in Polymer P1): 950 ppm | active-substance concentration, 28 d, 40° C. ([1]; in Polymer P1): 940 ppm | active-substance concentration, 60 d 40° C. ([1]; in Polymer P1): 940 ppm | active-substance concentration, 0 d, RT ([1]; in Polymer P2): 950 ppm | active-substance concentration, 14 d, 40° C. ([1]; in Polymer P2): 950 ppm | active-substance concentration, 28 d, 40° C. ([1]; in Polymer P2): 940 ppm | active-substance concentration, 60 d 40° C. ([1]; in Polymer P2): 940 ppm | active-substance concentration, 0 d, RT ([1]; in Polymer P3): 950 ppm | active-substance concentration, 14 d, 40° C. ([1]; in Polymer P3): 950 ppm | active-substance concentration, 28 d, 40° C. ([1]; in Polymer P3): 940 ppm | active-substance concentration, 60 d 40° C. ([1]; in Polymer P3): 930 ppm | active-substance concentration, 0 d, RT ([1]; in Polymer P4): 950 ppm | active-substance concentration, 14 d, 40° C. ([1]; in Polymer P4): 950 ppm | active-substance concentration, 28 d, 40° C. ([1]; in Polymer P4): 942 ppm | active-substance concentration, 60 d 40° C. ([1]; in Polymer P4): 940 ppm | active-substance concentration, 0 d, RT ([1]; in Polymer P5 (HP56)): 950 ppm | active-substance concentration, 14 d, 40° C. ([1]; in Polymer P5 (HP56)): 950 ppm | active-substance concentration, 28 d, 40° C. ([1]; in Polymer P5 (HP56)): 940 ppm | active-substance concentration, 60 d 40° C. ([1]; in Polymer P5 (HP56)): 940 ppm | active-substance concentration, 0 d, RT ([1]; in Polymer P6): 950 ppm | active-substance concentration, 14 d, 40° C. ([1]; in Polymer P6): 950 ppm | active-substance concentration, 28 d, 40° C. ([1]; in Polymer P6): 950 ppm | active-substance concentration, 60 d 40° C. ([1]; in Polymer P6): 943 ppm | active-substance concentration, 0 d, RT ([1]; in Polymer P7): 950 ppm | active-substance concentration, 14 d, 40° C. ([1]; in Polymer P7): 947 ppm | active-substance concentration, 28 d, 40° C. ([1]; in Polymer P7): 945 ppm | active-substance concentration, 60 d 40° C. ([1]; in Polymer P7): 938 ppm | active-substance concentration, 0 d, RT ([1]; in Polymer P8): 950 ppm | active-substance concentration, 14 d, 40° C. ([1]; in Polymer P8): 950 ppm | active-substance concentration, 28 d, 40° C. ([1]; in Polymer P8): 940 ppm | active-substance concentration, 60 d 40° C. ([1]; in Polymer P8): 940 ppm | active-substance concentration, 0 d, RT ([1]; in Polymer P9): 950 ppm | active-substance concentration, 14 d, 40° C. ([1]; in Polymer P9): 950 ppm | active-substance concentration, 28 d, 40° C. ([1]; in Polymer P9): 944 ppm | active-substance concentration, 60 d 40° C. ([1]; in Polymer P9): 940 ppm | Iodine color number, 60 d 40° C. ([2]; Polymer P1 with stabilizer): 2.9 | Iodine color number, start ([2]; Polymer P1 with stabilizer): 2.9 | Iodine color number, 60 d 40° C. ([2]; Polymer P2 with stabilizer): 3.0 | Iodine color number, start ([2]; Polymer P2 with stabilizer): 2.9 | Iodine color number, 60 d 40° C. ([2]; Polymer P3 with stabilizer): 3.3 | Iodine color number, start ([2]; Polymer P3 with stabilizer): 3.3 | Iodine color number, 60 d 40° C. ([2]; Polymer P4 with stabilizer): 3.3 | Iodine color number, start ([2]; Polymer P4 with stabilizer): 3.3 | Iodine color number, 60 d 40° C. [2, 4]: 3.3 | Iodine color number, start [2, 4]: 3.3 | Iodine color number, 60 d 40° C. ([2]; Polymer P6 with stabilizer): 3.3 | Iodine color number, start ([2]; Polymer P6 with stabilizer): 3.3 | Iodine color number, 60 d 40° C. ([2]; Polymer P7 with stabilizer): 3.3 | Iodine color number, start ([2]; Polymer P7 with stabilizer): 3.3 | Iodine color number, 60 d 40° C. ([2]; Polymer P8 with stabilizer): 3.3 | Iodine color number, start ([2]; Polymer P8 with stabilizer): 3.3 | Iodine color number, 60 d 40° C. ([2]; Polymer P9 with stabilizer): 3.9 | Iodine color number, start ([2]; Polymer P9 with stabilizer): 3.8 | Physical stability, 60 d 40° C.* ([3]; Polymer P1 with stabilizer): ++ | Physical stability, 60 d 40° C.* ([3]; Polymer P2 with stabilizer): ++ | Physical stability, 60 d 40° C.* ([3]; Polymer P3 with stabilizer): ++ | Physical stability, 60 d 40° C.* ([3]; Polymer P4 with stabilizer): ++ | Physical stability, 60 d 40° C.* [3, 4]: ++ | Physical stability, 60 d 40° C.* ([3]; Polymer P6 with stabilizer): ++ | Physical stability, 60 d 40° C.* ([3]; Polymer P7 with stabilizer): ++ | Physical stability, 60 d 40° C.* ([3]; Polymer P8 with stabilizer): ++ | Physical stability, 60 d 40° C.* ([3]; Polymer P9 with stabilizer): ++
